The subject of data set [1] is citrated rat plasma. The data set is described as follows: Anticoagulant effect in rat plasma, activated partial thromboplastin time (APTT) assay. Particulars: rat plasma, broad concentration range of added inhibitor. The data set is classed as biochemical. Here is the method: (§1) The ex vivo anticoagulant effects of BzlSO2 -norVal (cyclo)-Gly-Arg-al(Example 8) and N-(BnSO2 -norLeu (cyclo)-Gly)-L-argininal (Example 34) were determined by measuring the prolongation of the activated partial thromboplastin time (APTT) over a broad concentration range of the added inhibitor, using pooled normal human and rat plasma.
(§2) Fresh frozen citrated pooled normal human plasma was obtained from George King Biomedical, Overland Park, Kans. Pooled normal rat plasma was prepared from citrated whole blood collected from anesthetized rats using standard procedures. The plasma was flash frozen and stored at -80° C. until use.
(§3) Measurements APTT was made using the Coag-A-Mate RA4 automated coagulometer (General Diagnostics, Organon Technica, Oklahoma City, Okla.) using the Automated APTT reagent (Organon Technica, Durham, N.C.) as the initiator of clotting according to the manufacturers instructions. The assay was conducted by making a series of dilutions of the test compounds in rapidly thawed plasma followed by adding 200 microliters to the wells of the assay carousel.

Data set [2] can be described thus: Oral activity in dogs: blood levels and bioavailability. The data set is classed as in vivo, beagle dogs. Here is the method:
The pharmacodynamic and pharmacokinetic parameters of the compound of Example 34 were evaluated after oral administration in dogs. Adult beagle dogs (9-12 kg) were housed individually in standard cages, and were fed a standard certified commercial diet and tap water ad libitum. Dogs were given an oral dose of 20 mg/kg test compound, in 55 ml deionized water, via a gastric tube, followed by a water rinse. In a separate protocol, 5 mg/kg of test compound, in 5 ml 0.9% sodium chloride, were administered by fast bolus i.v. injection through an indwelling saphenous vein catheter. The same dogs were used for both routes of administration, with a one week wash out period between use of the dogs for the different protocols. […]
(§4) The blood levels of test compound were measured by extracting the compound from plasma, separation by HPLC, and post-column derivatization with a fluorogenic functional group. The clotting time of blood was measured using an APTT assay, which measures the prolongation of the activated partial thromboplastin time (APTT) by the test compound. […]
The systemic bioavailability of the test compound administered by the oral route was calculated by comparing the AUC values (area under curve describing level of compound in blood over time) after i.v. and oral administration. […]

Data set [3] deals with human α-thrombin (Homo sapiens, UniProt P00734). The data set is described as follows: In vitro enzyme assay for specificity: Thrombin (fIIa) assay, IC50. The data set is classed as biochemical. The procedure: IC50 determinations were conducted where HBSA (50 μL), α-thrombin (50 μl) and inhibitor (50 μl) (covering a broad concentration range), were combined in appropriate wells and incubated for 30 minutes at room temperature prior to the addition of substrate Pefachrome-t-PA (50 μl).

The test system of data set [4] is FeCl3 -induced Platelet-dependent Arterial Thrombosis. Briefly: Rat model of FeCl3 -induced platelet-dependent arterial thrombosis. Particulars: for Incidence of Occlusion: rat. The data set is classed as in vivo. An excerpt: This is a well characterized model of platelet dependent, arterial thrombosis which has been used in the evaluation potential antithrombotic compounds such as direct thrombin inhibitors. Kurz, K. D., Main, B. W., and Sandusky, G. E., Thromb. Res., 60: 269-280 (1990). In this model a platelet-rich, occlusive thrombus is formed in a segment of the rat carotid artery treated locally with a fresh solution of FeCl3 absorbed to a piece of filter paper. The FeCl3 is thought to diffuse into the treated segment of artery and causes de-endothelialization of the affected vessel surface. […] The effect of a test compound on the incidence of occlusive thrombus formation following the application of the FeCl3 is monitored by ultrasonic flowtometry and is used as the primary end point. The use of flowtometry to measure carotid artery blood flow, is a modification of the original procedure in which thermal detection of clot formation was employed. Kurz, K. D., Main, B. W., and Sandusky, G. E., Thromb. Res., 60: 269-280 (1990).
Male Harlan Sprague Dawley rats (420-450 g) were acclimated at least 72 hours prior to use and fasted for 12 hours prior to surgery with free access to water. The animals were prepared, anesthetized with Nembutal followed by the insertion of catheters for blood pressure monitoring, drug and anesthesia delivery. The left carotid artery was isolated by making a midline cervical incision followed by blunt dissection and spreading techniques to separate a 2 cm segment of the vessel from the carotid sheath. A silk suture is inserted under the proximal and distal ends of the isolated vessel to provide clearance for the placement of a ultrasonic flow probe (Transonic) around the proximal end of the vessel. The probe is then secured with a stationary arm.
Following surgery the animals were randomized in either a control (saline) or treatment group with test compound (BzlSO2 -norVal(cyclo)-Gly-Arg-al or N-(BnSO2 -norLeu(cyclo)Gly)-L-argininal)with at least 6 animals per group per dose. The test compound was administered as a single intravenous bolus at the doses outlined in Table 3 after placement of the flow probe and 5 minutes prior to the thrombogenic stimulus. At t=0, a 3 mm diameter piece of filter paper (Whatman #3) soaked with 10 microliters of a 35% solution of fresh FeCl3 (made up in water) was applied the segment of isolated carotid artery distal to the flow probe. Blood pressure, blood flow, heart rate, and respiration were monitored for 60 minutes.
The incidence of occlusion (defined as the attainment of zero blood flow) was recorded as the primary end point.
This allows a direct comparison of the antithrombotic efficacy of BzlSO2 -norVal(cyclo)-Gly-Arg-al and N-(BnSO2 -norLeu(cyclo)-Gly)-L-argininal with other antithrombotic agents which have also been evaluated in this model as described above. Table 6 lists the ED50 values for several well known anticoagulant agents in this model compared to the present compounds.

Data set [5] deals with citrated human plasma. Briefly: Anticoagulant effect in human plasma, activated partial thromboplastin time (APTT) assay. The data set is classed as biochemical. Here is the method: as §1, §2, §3
In data set [6] the target is T1, bovine pancreatic trypsin (Bos taurus, UniProt P00760).
T1 sequence (P00760 24-246): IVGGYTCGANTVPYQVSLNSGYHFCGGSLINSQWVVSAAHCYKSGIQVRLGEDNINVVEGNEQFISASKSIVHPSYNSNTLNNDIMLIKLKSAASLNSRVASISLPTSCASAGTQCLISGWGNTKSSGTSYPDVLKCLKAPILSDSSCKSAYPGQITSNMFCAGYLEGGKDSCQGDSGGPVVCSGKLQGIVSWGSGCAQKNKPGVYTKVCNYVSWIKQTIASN
The data set is described as follows: In vitro enzyme assay for specificity: trypsin, IC50. The data set is classed as biochemical. Particulars: Table 2. Here is the method: Trypsin catalytic activity was determined using the chromogenic substrate, S-2222 (benzoyl-L-isoleucine-L-glutamic acid-(gamma-methyl ester)-L-arginine-p-nitroanilide), which was obtained from Kabi Diagnostica. […] Purified (3×-crystallized; TRL3) bovine pancreatic trypsin was obtained from Worthington Biochemical Corp. The enzyme was reconstituted in deionized water and diluted into HBSA prior to assay in which the final concentration was 0.5 nM.

Data set [7] concerns activated partial thromboplastin time (APTT). The data set is described as follows: Oral activity in dogs: clotting time of blood samples by APTT assay. The data set is classed as in vivo, beagle dogs. Particulars: after oral dosing. Here is the method: The pharmacodynamic and pharmacokinetic parameters of the compound of Example 34 were evaluated after oral administration in dogs. Adult beagle dogs (9-12 kg) were housed individually in standard cages, and were fed a standard certified commercial diet and tap water ad libitum. Dogs were given an oral dose of 20 mg/kg test compound, in 55 ml deionized water, via a gastric tube, followed by a water rinse. In a separate protocol, 5 mg/kg of test compound, in 5 ml 0.9% sodium chloride, were administered by fast bolus i.v. injection through an indwelling saphenous vein catheter. The same dogs were used for both routes of administration, with a one week wash out period between use of the dogs for the different protocols.
After mixing with the anticoagulant, each blood sample was immediately chilled by immersion in a slurry of ice and water. The plasma was separated by centrifugation (4° C., 2400 rpm, 10 min) within 10 min of collection, and then transferred to a cryotube and stored at […] until analysis.
as §4

For data set [8], the target named is human alpha-thrombin (Homo sapiens, UniProt P00734). The data set is described as follows: Kinetic analysis in an in vitro thrombin inhibition assay (Ki). The data set is classed as biochemical. Particulars: Table 1; Mean ± SD, n = 3; steady state velocities over 40 minutes.
Description: Enzyme activity was determined using the chromogenic substrate Pefachrome t-PA (CH3SO2-D-hexahydrotyrosine-glycyl -L-arginine-p-Nitroanilide), obtained from Pentapharm Ltd. The substrate was reconstituted in deionized water prior to use. Purified human alpha-thrombin (3000U/mg specific activity) was obtained from Enzyme Research Laboratories, Inc. The buffer used for all assays was HBSA (10 mM HEPES, pH 7.5, 150 mM sodium chloride, 0.1% bovine serum albumin).
Velocities of chromogenic substrate hydrolysis which occurred over 40 minutes was measured by the change in absorbance at 405 nm using a Thermo Max® Kinetic Microplate Reader. […] The extent of substrate hydrolysis was less than 5% over the course of this assay.

Like-named read-outs stand apart in the source and are kept apart here.

Regarding `NC(N)=NCCC[C@@H](C=O)NC(=O)CN1CCCCC(NS(=O)(=O)Cc2ccccc2)C1=O` (stereo partly drawn) [Example 34, N-(BnSO2 -norLeu(cyclo)-Gly)-L-argininal], the “prolongation of the APTT” value in data set [1] was “prolonged the APTT in a dose-dependent manner”; in data set [5] (human plasma, broad concentration range of added inhibitor), “prolonged the APTT in a dose-dependent manner”. The “time at which blood level of compound reached maximum levels” value in data set [2] (after administration) lay in the range of 30 to 40 min. For the same molecule, in data set [2] (oral 20 mg/kg vs i.v. 5 mg/kg, corrected for difference in dose), the “systemic bioavailability (ratio of AUC oral to AUC i.v.)” value is listed as “approximately 66%”. Besides, the IC50 – broadly, the concentration needed to halve the response being measured – in data set [3] (Table 2, 30-minute incubation with enzyme before substrate, read-out: IC50 alpha-thrombin) was found to be 0.93 nM; in data set [3] (Table 3, read-out: IC50 (nM) thrombin) it was 0.71 nM; in data set [6], 72 nM. For the same molecule, the “ED50 for thrombus prevention (dose that prevents complete thrombotic occlusion in 50% of animals tested)” value in data set [4] (rat FeCl3 model of arterial thrombosis) was found to be 2.1 mg/kg. The “Incidence of Occlusion” value is given as 6/6 in data set [4] (0.3 mg/kg single intravenous bolus 5 minutes prior to FeCl3, n 6, monitored 60 minutes); 6/6 in data set [4] (1.0 mg/kg single intravenous bolus 5 minutes prior to FeCl3, n 6, monitored 60 minutes); 2/6 in data set [4] (3.0 mg/kg single intravenous bolus 5 minutes prior to FeCl3, n 6, monitored 60 minutes); 2/6 in data set [4] (5.0 mg/kg single intravenous bolus 5 minutes prior to FeCl3, n 6, monitored 60 minutes). Further, in data set [5] (citrated human plasma, mean of two independent determinations), the “concentration which caused a doubling of the control clotting time (APTT)” value is 4.5 µM. Besides, the “time to significant elevation of APTT” value in data set [7] is 20 to 30 min. Besides, the Ki – broadly, a dissociation constant, usually derived from enzyme kinetics or from competition with a known ligand – in data set [8] came to 0.538 ± 0.08 nM.

These data come from patent US6034215A, “3-amino-2-oxo-1-piperidnercetic derivatives as enzyme inhibitors” (Corvas International, Inc., priority 1997, dated 2000).
